pIC50: −log10 of the molar value.
Legend:
[1] = target: T1, Estrogenic Receptor of Mouse Uterus (Mus musculus, UniProt P19785); assay: Relative affinity of the bond, estrogen receptor (tritiated estradiol displacement); format: binding; settings: for Relative affinity of the bond (RAB), Oestrogen, 2 H: incubation 2 H at 0° C.; for Relative affinity of the bond (RAB), Oestrogen, 2 H / Relative affinity of the bond (RAB), Oestrogen, 6 H / Relative affinity of the bond (RAB), Oestrogen Receptors, 2 Hrs / Relative affinity of the bond (RAB), Oestrogen Receptors, 5 Hrs: RAB=100(CH)/(CX); for Relative affinity of the bond (RAB), Oestrogen, 6 H: incubation 6 H (second time); for affinity for the estrogen receptors: at the second time (incubation); for Relative affinity of the bond (RAB), Oestrogen Receptors, 2 Hrs: incubation time 2 Hrs; for Relative affinity of the bond (RAB), Oestrogen Receptors, 2 Hrs / Relative affinity of the bond (RAB), Oestrogen Receptors, 5 Hrs: second part of the table; for Relative affinity of the bond (RAB), Oestrogen Receptors, 5 Hrs: incubation time 5 Hrs
T1 construct: their uteri were removed, then homogenized at 0° C; from tissue; host or cells: uterine cytosol (105,000 g supernatant) of immature female mice
T1 sequence (P19785 1-599): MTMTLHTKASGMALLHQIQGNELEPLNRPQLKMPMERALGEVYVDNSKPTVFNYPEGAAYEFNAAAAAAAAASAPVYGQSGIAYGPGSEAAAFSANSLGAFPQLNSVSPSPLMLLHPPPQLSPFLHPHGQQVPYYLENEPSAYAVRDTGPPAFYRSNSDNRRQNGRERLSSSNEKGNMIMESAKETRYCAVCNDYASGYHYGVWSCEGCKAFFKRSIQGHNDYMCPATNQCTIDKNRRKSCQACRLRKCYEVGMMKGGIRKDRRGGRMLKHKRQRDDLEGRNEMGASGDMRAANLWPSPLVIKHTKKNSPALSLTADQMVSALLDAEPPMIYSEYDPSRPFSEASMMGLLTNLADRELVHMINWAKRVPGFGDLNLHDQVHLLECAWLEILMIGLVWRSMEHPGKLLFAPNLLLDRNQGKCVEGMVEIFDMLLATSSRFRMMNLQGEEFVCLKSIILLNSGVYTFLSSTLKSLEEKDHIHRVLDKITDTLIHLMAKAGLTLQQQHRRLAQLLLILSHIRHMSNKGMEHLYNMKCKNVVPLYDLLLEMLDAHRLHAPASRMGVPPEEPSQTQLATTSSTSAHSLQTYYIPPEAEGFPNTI
Experimental: Estrogenic Receptor of Mouse Uterus:
Impuberal female mice aged from 18 to 21 days were killed and their uteri were removed, then homogenized at 0° C. with the aid of a Potter teflon-glass in a TS buffered solution (10 mM Tris, 0.25 M saccharose, HCL pH 7.4) (1 g of tissue for 25 ml of TS). The homogenate was ultracentrifuged (105,000 g×90 min) at 0° C. and aliquots of the supernatant were incubated at 0° C. or at 25° C. for a time (t) with a constant concentration (T) of tritiated estradiol in the presence of increasing concentrations (0-1000×10^−9 M) either of cold estradiol, or of the cold product to be tested. The concentration (B) of bound tritiated estradiol was measured in each incubate by the technique of adsorption on dextran carbon.
Calculation of the Relative Affinty of the Bond
The calculation of the Relative Affinity of the Bond (RAB) was identical for all the receptors. The following 2 curves were traced; the percentage of the bound tritiated hormone [formula]
was a function of the logarithm of the concentration of the cold reference hormone and [formula]
as a function of the logarithm of the concentration of the cold product tested.
One determined the straight line of the equation [formula]
The intersections of the straight line I50 and of the curves make it possible to evaluate the concentrations of the cold reference hormone (CH) and of the tested cold product (CX) which inhibit to an extend of 50% the binding of the tritiated hormone upon the receptor. The relative affinity of the bond (RAB) of the tested product is determined by the equation

[2] = system: MCF-7 mammary tumoral cells; assay: Anti-proliferative activity upon the growth of MCF-7 cells (DNA measurement with DABA); format: cell-based; settings: 6 days, inhibition of the increase of DNA, read-out: concentration which inhibited the growth of MCF7 to an extent of 50% (IC50)
Experimental: B. Anti-proliferative activity of the products of the invention upon the growth of MCF-7 mammary tumoral cells.
The MCF-7 strains were kept under culture in FCS(1) medium at 37° C. under a humid atmosphere containing 5% CO2 and the cells at subconfluence were harvested by trypsination (0.05% trypsine, 0.02% EDTA), then rinsed by gentle centrifugation. A sample of the cells in suspension was counted on Malassez cell.
The cells, resuspended in FCS medium, were seeded at a rate of 30,000 cells per pit in multi-pit plates (24 pits of 2.5 cm^2) and twenty four hours after seeding (DO), the product to be tested was added to the medium in ethanolic solution (final concentration in ethanol: 0.1%), at a concentration of 10^−12 to 10^−6 M, the control pits receiving the same concentration of ethanol. The media were renewed every 48 hours and at the end of the experiment (D6), the medium was sucked off and the cells were immediately fixed with 150 microliters of methanol to estimate the DNA. The anti-proliferative activity of the products was evaluated by their capacity to inhibit the increase of DNA.
The DNA was measured by a fluorimetric method employing DABA (3,5-diaminobenzoic acid) (2): 150 microliters of DABA were added to each of the pits and the plates were then incubated for 45 minutes at 56° C., then 2 ml of 1 N HCl were added. The fluorescence was measured with the aid of a fluorimeter (length of the exiting wave: 408 nm, length of the emitting wave: 501 nm). The quantity of DNA per pit was evaluated with reference to a standard scale obtained by treating a standard DNA from calf thymus under the same conditions.
The concentration in nM which inhibited the growth of MCF7 to an extent of 50% (IC50) was determined in the manner indicated below:
(1) The fetal calf serum (FCS) culture medium was prepared as follows: MEM medium (minimal essential medium) to which were added:
Non-essential amino acids (GIBCO),
Peni-strepto (100 U/ml penicillin, 0.1 mg/ml streptomycin),
Fetal calf serum containing no steroids (10% final concentration).
(2) Puzas and Goodman, Analytical Biochemistry, Vol. 86, pp. 50, 1978.

| Compound | Relative affinity of the bond (RAB), Oestrogen, 2 H [1] | Relative affinity of the bond (RAB), Oestrogen, 6 H [1] | pIC50 [2] | affinity for the estrogen receptors [1] | Relative affinity of the bond (RAB), Oestrogen Receptors, 2 Hrs [1] | Relative affinity of the bond (RAB), Oestrogen Receptors, 5 Hrs [1] |
| --- | --- | --- | --- | --- | --- | --- |
| CCCCN(C)C(=O)CCCCCC#Cc1ccc([C@H]2C[C@]3(C)[C@@H](O)CC[C@H]3[C@@H]3CCc4cc(O)ccc4[C@H]32)cc1 [Example 35] | 0.13 | 12 | 10.40 | – | – | – |
| CCCCN(C)C(=O)COCCCCCOc1ccc([C@H]2C[C@]3(C)[C@@H](O)CC[C@H]3[C@@H]3CCc4cc(O)ccc4[C@H]32)cc1 [Example 43, N-butyl-[5-[4-(3,17β-dihydroxy-Δ^1,3,5(10)-estratrien-11β-yl)-phenoxy]-pentyloxy]-N-methyl acetamide] | 4.0 | 3.0 | 11.70 | – | – | – |
| C#C[C@]1(O)CC[C@H]2[C@@H]3CCc4cc(O)ccc4[C@H]3[C@@H](CCCCCCCCCCC(=O)N(C)C(C)C)C[C@@]21C [Example 55, 3,17β-Dihydroxy-N-Methyl-N-Isopropyl-19-Nor-17α-Δ^1,3,5(10)-Pregnatrien-20-Yn-118-Undecanamide] | 1.2 | 45 | 11.00 | marked affinity | – | – |
| CCCCN(C)C(=O)CCCCCCCc1ccc([C@H]2C[C@]3(C)[C@@H](O)CC[C@H]3[C@@H]3CCc4cc(O)ccc4[C@H]32)cc1 [Example 8, N-Butyl-4-[3,17β-dihydroxy-Δ^1,3,5(10)-estratrien-11β-yl]-N-methyl benzene octanamide] | – | – | 10.40 | marked affinity | – | – |
| CCCCN(C)C(=O)COCCCCCC#Cc1ccc([C@H]2C[C@]3(C)[C@@H](O)CC[C@H]3[C@@H]3CCc4cc(O)ccc4[C@H]32)cc1 [Example 37, 2-((7-(4-(3,17β-dihydroxy-Δ^1,3,5(10)-estratrien-11β-yl)-phenyl)-6-heptynyl.)-oxy)-N-butyl-N-methyl Acetamide] | 0.6 | 28 | 10.52 | marked affinity | – | – |
| CN(CC(F)(F)C(F)(F)C(F)(F)F)C(=O)CCCCCCCOc1ccc([C@H]2C[C@]3(C)[C@@H](O)CC[C@H]3[C@@H]3CCc4cc(O)ccc4[C@H]32)cc1 [Example 82, 8-(4-(δ^1,3,5(10)-estratrien-3,17β-diol-11β-yl)-phenoxy)-N-(2,2,3,3,4,4,4-heptafluorobutyl)-N-methyl-octanamide] | – | – | 10.70 | – | 0 | 23 |
| CCCCN(C)C(=O)CSCCCCCc1ccc([C@H]2C[C@]3(C)[C@@H](O)CC[C@H]3[C@@H]3CCc4cc(O)ccc4[C@H]32)cc1 [Example 86] | – | – | 11.05 | – | – | 11.7 |
| CCCCN(C)C(=O)COCCCCCCOc1ccc([C@H]2C[C@]3(C)[C@@H](O)CC[C@H]3[C@@H]3CCc4cc(O)ccc4[C@H]32)cc1 [Example 83] | – | – | 11.15 | – | 3.3 | 29 |
| CCCCN(C)C(=O)CSCCCCCOc1ccc([C@H]2C[C@]3(C)[C@@H](OC(=O)CCC(=O)O)CC[C@H]3[C@@H]3CCc4cc(O)ccc4[C@H]32)cc1 [Example 96, Monobutanedioate of 11β-(4-(5-((2-(Butyl-Methylamino)-2-Oxoethyl)-Thio)-Pentyloxy)-Phenyl)δ^1,3,5(10)-Estratrien-3-ol-17 β-yl] | – | – | – | – | – | 16 |
| CCCCN(C)C(=O)CCCCCCCOc1ccc([C@H]2C[C@]3(C)[C@@H](O)CC[C@H]3[C@@H]3CCc4cc(O)ccc4[C@H]32)cc1 [Example 46, N-butyl-8-[4-(3,17β-dihydroxy-Δ^1,3,5,(10)-estratrien-11β-yl)-phenoxy]-N-methyl Octanamide] | 0.3 | 65 | 11.22 | marked affinity | – | – |
| CCCCN(C)C(=S)CCCCCCCOc1ccc([C@H]2C[C@]3(C)[C@@H](O)CC[C@H]3[C@@H]3CCc4cc(O)ccc4[C@H]32)cc1 [Example 79, N-butyl-8-(4-(3,17β-dihydroxy-δ^1,3,5(10)-estratrien-11β-yl)-phenoxy)-N-methyloctanethioamide] | – | – | 10.46 | – | – | 16 |
| CCCCN(C)C(=S)COCCCCCOc1ccc([C@H]2C[C@]3(C)[C@@H](O)CC[C@H]3[C@@H]3CCc4cc(O)ccc4[C@H]32)cc1 [Example 78, N-butyl-[5-[4-(3,17β-dihydroxy-δ^1,3,5(10)-estratrien-11β-yl)-phenoxy]-pentyloxy]-N-methyl-ethanethioamide] | – | – | 10.52 | – | – | 20 |
| CCCCN(C)C(=O)CCCCCCCSc1ccc([C@H]2C[C@]3(C)[C@@H](O)CC[C@H]3[C@@H]3CCc4cc(O)ccc4[C@H]32)cc1 [Example 92, N-Butyl-8-(4-(δ^1,3,5(10)-Estratrien-3,17β-Diol-11 β-yl)-Phenyl-Thio)-N-Methyl-Octanamide] | – | – | 10.82 | marked affinity | 2.8 | 47 |
| CC(C)N(C)C(=O)COCCCCCCCC[C@H]1C[C@]2(C)[C@@H](O)CC[C@H]2[C@@H]2CCc3cc(O)ccc3[C@@H]12 [Example 71, [[8(3,17beta-dihydroxy-estra-1,3,5(10)-trien-11beta-yl)-octyl]-oxy]-N-methyl-N-(1-methylethyl) acetamide] | 0.6 | 50 | 10.00 | marked affinity | – | – |

Reference: US6790971B1, “19-Nor-steroids” (Aventis Pharma S.A., priority 1989, dated 2004)
